Biological target: T1, recombinant human TCTP (Homo sapiens, UniProt P13693)
T1 construct: gene TPT1; recombinant; RED-NHS fluorescently labelled for MST
T1 sequence (P13693 1-172): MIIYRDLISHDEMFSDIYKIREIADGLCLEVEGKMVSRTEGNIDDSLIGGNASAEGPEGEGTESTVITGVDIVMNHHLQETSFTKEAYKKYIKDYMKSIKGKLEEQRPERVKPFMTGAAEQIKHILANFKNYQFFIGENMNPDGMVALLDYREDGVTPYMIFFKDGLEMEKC
Assay: microscale thermophoresis
Assay type: binding

| Kd [µM] | SMILES |
| --- | --- |
| 15.4 ± 1.4 | CN[C@H]1CC[C@@H](c2ccc(Cl)c(Cl)c2)c2ccccc21 [sertraline] |
| 5.39 ± 2.1 | CSc1ccc2c(c1)N(CCC1CCCCN1C)c1ccccc1S2 (centres unmarked) [thioridazine] |

Source: publication PMC11014985, “TCTP regulates genotoxic stress and tumorigenicity via intercellular vesicular signaling” (EMBO Reports, 2024)
